ChEMBL document CHEMBL5465560, “Selectivity Literature for EUbOPEN Chemogenomic Library” (2024)

Tests used:
[1] = biological target: T1, Ephrin type-B receptor 3 (Homo sapiens) (UniProt P54753); test: Selectivity interaction (Ambit KINOMEscan and KiNATiv profiling in Jurkat cells) EUB0000090b EPHB3; assay type: cell-based; conditions: at 1 µM
T1 sequence (whole entry): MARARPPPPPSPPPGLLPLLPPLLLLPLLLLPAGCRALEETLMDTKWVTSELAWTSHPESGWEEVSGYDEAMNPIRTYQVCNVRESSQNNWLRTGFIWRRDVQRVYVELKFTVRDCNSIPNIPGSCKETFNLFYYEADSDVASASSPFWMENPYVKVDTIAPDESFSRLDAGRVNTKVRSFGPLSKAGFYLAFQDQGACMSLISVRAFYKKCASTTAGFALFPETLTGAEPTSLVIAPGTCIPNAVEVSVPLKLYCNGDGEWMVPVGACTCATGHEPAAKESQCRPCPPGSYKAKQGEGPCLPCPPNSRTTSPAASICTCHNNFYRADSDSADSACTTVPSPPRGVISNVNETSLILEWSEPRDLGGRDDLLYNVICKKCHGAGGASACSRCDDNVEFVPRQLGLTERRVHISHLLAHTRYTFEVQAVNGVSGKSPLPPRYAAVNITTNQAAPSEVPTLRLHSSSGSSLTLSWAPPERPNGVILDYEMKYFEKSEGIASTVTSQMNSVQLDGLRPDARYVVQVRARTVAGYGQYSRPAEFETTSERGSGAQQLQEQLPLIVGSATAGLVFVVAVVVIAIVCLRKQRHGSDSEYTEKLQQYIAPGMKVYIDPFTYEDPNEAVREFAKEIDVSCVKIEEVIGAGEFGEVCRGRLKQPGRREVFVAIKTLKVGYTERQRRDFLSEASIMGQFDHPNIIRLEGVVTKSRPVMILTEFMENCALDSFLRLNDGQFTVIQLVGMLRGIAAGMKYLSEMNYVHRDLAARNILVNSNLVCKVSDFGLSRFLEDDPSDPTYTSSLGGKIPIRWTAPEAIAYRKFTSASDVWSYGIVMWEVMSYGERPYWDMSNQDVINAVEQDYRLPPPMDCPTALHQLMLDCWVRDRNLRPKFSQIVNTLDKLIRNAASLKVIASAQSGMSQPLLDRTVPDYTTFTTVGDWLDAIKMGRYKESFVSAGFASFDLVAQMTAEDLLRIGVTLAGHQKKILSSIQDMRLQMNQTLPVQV

Misshapen-like kinase 1 = Misshapen-like kinase 1 (Homo sapiens, UniProt Q8N4C8); test: Selectivity interaction (Ambit KINOMEscan and KiNATiv profiling in Jurkat cells) EUB0000090b MINK1; assay type: cell-based; conditions: at 1 µM
[2] = biological target: Serine/threonine-protein kinase OSR1 (Homo sapiens) (UniProt O95747); test: Selectivity interaction (KinomeScan (DiscoverX)) EUB0000607a OXSR1; conditions: at 10 µM
[3] = biological target: T2, Serine/threonine-protein kinase 3 (Homo sapiens) (UniProt Q13188); test: Selectivity interaction (Upstate Kinase Profiler service (Millipore)) EUB0000056c STK3; conditions: at 1 µM
T2 sequence (whole entry): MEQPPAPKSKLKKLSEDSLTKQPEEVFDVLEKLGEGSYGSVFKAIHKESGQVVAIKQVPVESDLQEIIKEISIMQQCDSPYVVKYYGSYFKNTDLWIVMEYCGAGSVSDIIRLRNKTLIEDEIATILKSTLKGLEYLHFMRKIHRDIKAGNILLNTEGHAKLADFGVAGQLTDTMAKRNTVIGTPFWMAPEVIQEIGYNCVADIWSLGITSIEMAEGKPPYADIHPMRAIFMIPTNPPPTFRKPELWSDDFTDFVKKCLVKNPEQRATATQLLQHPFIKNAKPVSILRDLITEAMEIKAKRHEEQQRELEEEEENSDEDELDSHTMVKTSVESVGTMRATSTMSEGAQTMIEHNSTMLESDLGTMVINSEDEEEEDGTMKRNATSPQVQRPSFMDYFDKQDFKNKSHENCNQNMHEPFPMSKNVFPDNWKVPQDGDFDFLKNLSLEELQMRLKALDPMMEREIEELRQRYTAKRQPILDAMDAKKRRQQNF

[4] = biological target: T3, Serine/threonine-protein kinase ULK1 (Homo sapiens) (UniProt O75385); conditions: at 10 µM
T3 sequence (whole entry): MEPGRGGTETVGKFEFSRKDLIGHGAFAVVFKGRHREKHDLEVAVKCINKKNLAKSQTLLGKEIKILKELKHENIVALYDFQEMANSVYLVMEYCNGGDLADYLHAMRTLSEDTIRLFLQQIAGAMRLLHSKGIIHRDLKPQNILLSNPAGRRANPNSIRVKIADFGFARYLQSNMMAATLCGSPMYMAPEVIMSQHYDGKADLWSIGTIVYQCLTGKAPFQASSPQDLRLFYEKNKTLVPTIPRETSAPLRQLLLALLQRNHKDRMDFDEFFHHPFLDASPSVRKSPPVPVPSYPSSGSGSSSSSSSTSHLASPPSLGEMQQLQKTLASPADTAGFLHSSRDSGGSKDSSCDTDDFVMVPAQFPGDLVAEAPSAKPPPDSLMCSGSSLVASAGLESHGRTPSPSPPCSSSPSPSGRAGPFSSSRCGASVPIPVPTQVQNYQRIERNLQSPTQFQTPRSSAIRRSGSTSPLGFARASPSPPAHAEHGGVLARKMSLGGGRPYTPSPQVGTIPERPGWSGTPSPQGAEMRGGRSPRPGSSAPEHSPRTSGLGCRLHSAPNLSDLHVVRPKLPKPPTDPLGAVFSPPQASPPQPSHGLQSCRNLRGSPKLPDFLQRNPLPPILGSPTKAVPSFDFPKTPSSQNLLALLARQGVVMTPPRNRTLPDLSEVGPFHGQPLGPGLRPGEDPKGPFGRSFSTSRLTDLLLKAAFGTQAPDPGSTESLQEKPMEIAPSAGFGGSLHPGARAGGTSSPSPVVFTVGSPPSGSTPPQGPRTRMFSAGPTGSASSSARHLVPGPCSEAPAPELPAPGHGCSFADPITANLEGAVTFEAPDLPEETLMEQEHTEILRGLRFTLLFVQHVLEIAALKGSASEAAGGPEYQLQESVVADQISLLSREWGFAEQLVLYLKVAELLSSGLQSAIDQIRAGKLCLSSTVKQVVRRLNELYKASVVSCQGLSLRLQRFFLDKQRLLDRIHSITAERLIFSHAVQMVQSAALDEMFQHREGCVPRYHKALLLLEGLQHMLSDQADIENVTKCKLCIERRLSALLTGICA

[5] = biological target: Tyrosine-protein kinase ABL1 (Homo sapiens, UniProt P00519); test: Selectivity interaction (KinomeScan (DiscoverX)) EUB0001049a ABL1; conditions: at 1 µM
[6] = biological target: BMP-2-inducible protein kinase (Homo sapiens) (UniProt Q9NSY1); test: Selectivity interaction (KinomeScan (DiscoverX)) EUB0001049a BMP2K; conditions: at 1 µM
[7] = biological target: Calcium/calmodulin-dependent protein kinase type II subunit delta (Homo sapiens) (UniProt Q13557); test: Selectivity interaction (KinomeScan (DiscoverX)) EUB0000666a CAMK2D; conditions: at 10 µM
[8] = biological target: Serine/threonine-protein kinase MARK1 (Homo sapiens) (UniProt Q9P0L2); test: Selectivity interaction (KinomeScan (DiscoverX)) EUB0000092b MARK1; conditions: at 10 µM
Sequence of Serine/threonine-protein kinase MARK1 (Homo sapiens) (Q9P0L2 whole entry, looked up): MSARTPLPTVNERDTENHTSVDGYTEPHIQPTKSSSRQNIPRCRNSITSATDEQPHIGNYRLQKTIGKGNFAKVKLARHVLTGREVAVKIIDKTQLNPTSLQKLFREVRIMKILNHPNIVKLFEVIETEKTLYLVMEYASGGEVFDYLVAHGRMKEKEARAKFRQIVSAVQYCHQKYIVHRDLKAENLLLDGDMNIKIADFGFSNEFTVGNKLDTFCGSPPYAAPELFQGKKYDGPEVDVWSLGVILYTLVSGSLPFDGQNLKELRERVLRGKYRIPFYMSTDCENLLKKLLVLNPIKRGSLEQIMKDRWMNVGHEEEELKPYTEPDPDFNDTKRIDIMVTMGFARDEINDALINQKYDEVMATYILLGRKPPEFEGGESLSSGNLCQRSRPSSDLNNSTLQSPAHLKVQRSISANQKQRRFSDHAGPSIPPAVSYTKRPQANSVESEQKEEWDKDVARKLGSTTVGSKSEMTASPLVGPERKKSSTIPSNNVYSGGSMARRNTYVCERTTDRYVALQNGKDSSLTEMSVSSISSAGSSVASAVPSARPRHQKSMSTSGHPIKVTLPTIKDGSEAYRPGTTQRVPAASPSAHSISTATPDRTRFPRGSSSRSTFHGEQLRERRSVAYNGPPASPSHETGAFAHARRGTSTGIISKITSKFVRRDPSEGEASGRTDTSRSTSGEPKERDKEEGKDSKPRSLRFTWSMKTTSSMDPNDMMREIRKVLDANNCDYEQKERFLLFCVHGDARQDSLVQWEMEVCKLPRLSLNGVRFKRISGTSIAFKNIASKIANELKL

Sequence of Serine/threonine-protein kinase OSR1 (Homo sapiens) (O95747 2-527 limits assumed): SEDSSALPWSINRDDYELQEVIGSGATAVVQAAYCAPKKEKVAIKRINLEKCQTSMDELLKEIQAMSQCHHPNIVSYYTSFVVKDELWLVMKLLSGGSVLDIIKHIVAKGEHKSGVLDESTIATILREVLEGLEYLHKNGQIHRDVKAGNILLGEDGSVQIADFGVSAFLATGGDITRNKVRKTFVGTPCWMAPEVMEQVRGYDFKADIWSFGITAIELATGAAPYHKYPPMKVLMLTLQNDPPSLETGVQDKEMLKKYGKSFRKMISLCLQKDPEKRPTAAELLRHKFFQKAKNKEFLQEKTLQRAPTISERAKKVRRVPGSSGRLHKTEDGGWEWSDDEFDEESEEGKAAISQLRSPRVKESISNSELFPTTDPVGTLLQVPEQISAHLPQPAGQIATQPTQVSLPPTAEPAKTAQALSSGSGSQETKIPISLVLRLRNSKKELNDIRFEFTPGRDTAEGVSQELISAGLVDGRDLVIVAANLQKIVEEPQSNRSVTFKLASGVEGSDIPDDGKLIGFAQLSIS
Sequence of BMP-2-inducible protein kinase (Homo sapiens) (Q9NSY1 whole entry, looked up): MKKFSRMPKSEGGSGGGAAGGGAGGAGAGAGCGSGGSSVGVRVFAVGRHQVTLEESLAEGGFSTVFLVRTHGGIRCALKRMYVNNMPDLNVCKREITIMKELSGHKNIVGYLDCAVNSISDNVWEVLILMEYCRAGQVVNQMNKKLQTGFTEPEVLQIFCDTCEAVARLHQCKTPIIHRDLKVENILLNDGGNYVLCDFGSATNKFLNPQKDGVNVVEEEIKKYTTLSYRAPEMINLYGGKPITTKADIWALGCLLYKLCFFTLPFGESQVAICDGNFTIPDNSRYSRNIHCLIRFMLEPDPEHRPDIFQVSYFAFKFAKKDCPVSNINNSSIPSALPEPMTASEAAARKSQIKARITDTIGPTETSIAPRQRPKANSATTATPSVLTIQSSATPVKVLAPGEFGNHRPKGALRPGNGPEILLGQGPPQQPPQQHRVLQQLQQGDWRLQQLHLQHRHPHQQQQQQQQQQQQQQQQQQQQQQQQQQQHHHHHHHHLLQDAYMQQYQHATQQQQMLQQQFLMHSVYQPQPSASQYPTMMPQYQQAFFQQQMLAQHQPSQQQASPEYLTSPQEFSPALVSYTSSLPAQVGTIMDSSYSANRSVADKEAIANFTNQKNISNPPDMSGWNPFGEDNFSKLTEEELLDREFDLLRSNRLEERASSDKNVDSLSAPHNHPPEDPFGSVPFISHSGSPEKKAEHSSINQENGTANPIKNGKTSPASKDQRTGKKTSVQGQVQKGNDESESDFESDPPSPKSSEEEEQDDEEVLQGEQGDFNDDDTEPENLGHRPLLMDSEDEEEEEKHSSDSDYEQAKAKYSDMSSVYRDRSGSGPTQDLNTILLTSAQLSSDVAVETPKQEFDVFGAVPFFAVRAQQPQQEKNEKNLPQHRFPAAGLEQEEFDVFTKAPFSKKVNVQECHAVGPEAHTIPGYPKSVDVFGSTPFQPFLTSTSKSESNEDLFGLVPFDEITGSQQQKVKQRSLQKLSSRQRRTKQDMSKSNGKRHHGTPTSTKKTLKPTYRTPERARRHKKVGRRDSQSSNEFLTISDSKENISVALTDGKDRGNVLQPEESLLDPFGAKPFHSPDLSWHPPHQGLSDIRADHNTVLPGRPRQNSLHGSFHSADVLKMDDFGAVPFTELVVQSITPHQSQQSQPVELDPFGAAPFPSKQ
Sequence of Misshapen-like kinase 1 (Q8N4C8 whole entry, looked up): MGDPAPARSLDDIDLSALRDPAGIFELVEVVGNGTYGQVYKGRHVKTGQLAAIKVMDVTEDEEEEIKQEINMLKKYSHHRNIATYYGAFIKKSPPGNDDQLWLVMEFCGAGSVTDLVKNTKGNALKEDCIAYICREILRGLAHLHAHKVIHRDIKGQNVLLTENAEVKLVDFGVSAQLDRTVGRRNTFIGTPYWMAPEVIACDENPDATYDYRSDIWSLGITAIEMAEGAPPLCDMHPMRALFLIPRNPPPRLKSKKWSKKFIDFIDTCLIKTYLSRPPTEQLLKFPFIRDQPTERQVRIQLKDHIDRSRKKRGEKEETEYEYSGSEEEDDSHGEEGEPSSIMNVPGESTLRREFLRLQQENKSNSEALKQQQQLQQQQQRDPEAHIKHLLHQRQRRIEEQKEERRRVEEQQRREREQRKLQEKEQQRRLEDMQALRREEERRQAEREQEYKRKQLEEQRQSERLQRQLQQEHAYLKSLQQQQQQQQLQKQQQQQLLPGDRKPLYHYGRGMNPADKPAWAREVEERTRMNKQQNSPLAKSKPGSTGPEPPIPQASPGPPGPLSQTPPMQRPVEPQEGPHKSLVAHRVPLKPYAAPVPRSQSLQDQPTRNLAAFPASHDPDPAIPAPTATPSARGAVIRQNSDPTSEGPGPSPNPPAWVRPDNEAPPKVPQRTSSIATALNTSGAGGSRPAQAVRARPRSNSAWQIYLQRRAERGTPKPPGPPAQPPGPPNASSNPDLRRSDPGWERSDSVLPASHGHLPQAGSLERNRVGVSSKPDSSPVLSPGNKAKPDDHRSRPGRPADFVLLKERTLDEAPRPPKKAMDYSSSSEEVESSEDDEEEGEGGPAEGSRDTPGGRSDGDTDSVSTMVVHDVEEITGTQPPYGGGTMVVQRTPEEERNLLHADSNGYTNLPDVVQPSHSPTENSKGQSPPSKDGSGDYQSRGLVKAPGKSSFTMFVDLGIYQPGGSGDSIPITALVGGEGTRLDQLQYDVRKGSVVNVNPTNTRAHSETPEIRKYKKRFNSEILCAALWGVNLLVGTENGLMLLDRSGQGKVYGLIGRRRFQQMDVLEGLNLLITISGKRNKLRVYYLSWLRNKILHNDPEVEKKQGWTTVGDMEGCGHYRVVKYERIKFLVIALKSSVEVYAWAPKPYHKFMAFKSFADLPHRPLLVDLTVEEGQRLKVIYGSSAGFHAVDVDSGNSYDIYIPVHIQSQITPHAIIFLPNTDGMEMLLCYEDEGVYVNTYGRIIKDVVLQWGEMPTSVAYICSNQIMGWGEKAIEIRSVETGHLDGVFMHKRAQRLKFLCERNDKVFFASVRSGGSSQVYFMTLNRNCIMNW
Sequence of Calcium/calmodulin-dependent protein kinase type II subunit delta (Homo sapiens) (Q13557 whole entry): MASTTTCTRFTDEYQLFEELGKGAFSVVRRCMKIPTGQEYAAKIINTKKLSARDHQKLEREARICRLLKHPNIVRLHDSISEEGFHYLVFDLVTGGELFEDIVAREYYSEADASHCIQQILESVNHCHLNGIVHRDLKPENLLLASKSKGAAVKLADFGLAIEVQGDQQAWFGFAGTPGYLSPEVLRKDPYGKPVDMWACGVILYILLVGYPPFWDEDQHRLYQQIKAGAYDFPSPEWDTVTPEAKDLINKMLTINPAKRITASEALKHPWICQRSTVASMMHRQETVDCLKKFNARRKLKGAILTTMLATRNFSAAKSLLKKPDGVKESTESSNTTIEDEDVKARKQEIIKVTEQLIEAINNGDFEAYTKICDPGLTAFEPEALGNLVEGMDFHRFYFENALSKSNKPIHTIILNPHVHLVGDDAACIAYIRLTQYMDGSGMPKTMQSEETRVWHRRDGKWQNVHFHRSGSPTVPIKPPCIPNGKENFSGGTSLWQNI

With `CN(C)C/C=C/C(=O)Nc1ccc(C(=O)N2CCCC(Nc3ncc(Cl)c(-c4c[nH]c5ccccc45)n3)C2)cc1` (centres undefined) the % of control [1] was 93% and the % of control (Misshapen-like kinase 1) was 89%.
Work on `CNC(=O)Nc1ccc(-c2nc(N3CC4CCC(C3)O4)c3cnn(C4CCC5(CC4)OCCO5)c3n2)cc1` yielded a % of control [2] of 100%.
Work on `Cc1ccc(-c2ccc3c(ccc4sc5c(c43)NC[C@@H](C)NC5=O)n2)cn1` yielded a % of inhibition [3] of -17%.
`Cc1cc([C@@H](C)Nc2ccccc2C(=O)O)c2nc(N3CCOCC3)cc(=O)n2c1` [AZD-6482] showed a % of control [4] of 91%.
In the case of `COc1cc(Nc2nc(C)cc(-c3cnn4nc(OC)ccc34)n2)cc(C(F)(F)F)c1`, the % of control [5] is reported as 84% and the % of control [6] is reported as 86%.
For `O=C(NOC[C@H](O)CO)c1ccc(F)c(F)c1Nc1ccc(I)cc1F`, the % of control [7] was 100%.
In the case of `CCC(=O)N1CCN(c2ccc(-n3c(=O)ccc4cnc5ccc(-c6cnc7ccccc7c6)cc5c43)cc2C(F)(F)F)CC1`, the % of control [8] is reported as 100%.
